In US10300074B2, “Use of inhibitor of apoptosis protein (IAP) antagonists in HIV therapy” (Sanford-Burnham Medical Research Institute, priority 2014, dated 2019):

How the values were obtained:
XIAP BIR3 = XIAP BIR3 (Homo sapiens (Human), UniProt P98170); assay: XIAP BIR3 Ki; type: binding; conditions: Table B-1
XIAP BIR1/2 = XIAP BIR1/2 (Homo sapiens (Human), UniProt P98170); assay: XIAP BIR1/2 Ki; type: binding; conditions: Table B-1
[1] = tested on: Latently infected Jurkat JLat 10.6 cells; conditions: HDAC inhibitor in combination with Compound 35, 36 hours, normalized against background of HDAC inhibitor alone

Chain of XIAP BIR1/2 (P98170 1-240): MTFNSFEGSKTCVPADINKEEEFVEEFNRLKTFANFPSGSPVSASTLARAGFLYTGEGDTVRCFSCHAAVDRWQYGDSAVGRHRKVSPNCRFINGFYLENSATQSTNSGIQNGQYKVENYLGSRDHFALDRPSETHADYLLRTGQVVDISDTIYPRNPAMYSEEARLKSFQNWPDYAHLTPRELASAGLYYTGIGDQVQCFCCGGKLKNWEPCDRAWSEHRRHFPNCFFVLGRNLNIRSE
Chain of XIAP BIR3 (P98170 241-356): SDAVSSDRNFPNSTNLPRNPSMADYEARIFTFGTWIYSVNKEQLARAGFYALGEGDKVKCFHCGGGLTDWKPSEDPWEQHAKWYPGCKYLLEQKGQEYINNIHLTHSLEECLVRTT

| Compound | Ki (XIAP BIR3) | Ki (XIAP BIR1/2) | Group: increase of GFP+ cells [1] |
| --- | --- | --- | --- |
| CN[C@@H](C)C(=O)N[C@H]1CCO[C@H]2CCC(C(=O)n3ccc4ccccc43)N2C1=O (stereo partly drawn) [Compound 23] | 25 to 50 µM |  |  |
| CN[C@@H](C)C(=O)N[C@H]1CCO[C@H]2CC[C@@H](C(=O)Nc3cccc4ccccc34)N2C1=O [Compound 25] | ≤ 25 µM | ≤ 25 µM |  |
| CN[C@@H](C)C(=O)N[C@H]1CCN[C@H]2CCC(C(=O)N[C@@H]3CCCc4ccccc43)N2C1=O (stereo partly drawn) [Compound 28] | 25 to 50 µM | > 50 µM |  |
| CN[C@@H](C)C(=O)N[C@H]1CCN[C@H]2CCC(C(=O)N[C@@H]3CCCc4ccccc43)N2C1=O (stereo partly drawn) [Compound 29] | > 50 µM | > 50 µM |  |
| CN[C@@H](C)C(=O)N[C@H]1Cc2c([nH]c3ccccc23)[C@H]2CCC(C(=O)N[C@@H]3CCCc4ccccc43)N2C1=O (stereo partly drawn) [Compound 30] | 25 to 50 µM | > 50 µM |  |
| CN[C@@H](C)C(=O)N[C@H]1Cc2c([nH]c3ccccc23)[C@H]2CCC(C(=O)N[C@@H]3CCCc4ccccc43)N2C1=O (stereo partly drawn) [Compound 31] | ≤ 25 µM | ≤ 25 µM |  |
| CN[C@@H](C)C(=O)N[C@H]1CCS(=O)(=O)[C@H]2CC[C@@H](C(=O)N[C@@H]3CCCc4ccccc43)N2C1=O [Compound 37] | ≤ 25 µM | > 50 µM |  |
| CN[C@@H](C)C(=O)N[C@H]1CCS(=O)(=O)[C@H]2CC[C@H](C(=O)N[C@@H]3CCCc4ccccc43)N2C1=O [Compound 38] | 25 to 50 µM | > 50 µM |  |
| CN[C@@H](C)C(=O)N[C@H]1CCO[C@H]2CC[C@H](C(=O)N[C@@H]3CCOc4ccccc43)N2C1=O [Compound 39] | 25 to 50 µM | > 50 µM |  |
| CN[C@@H](C)C(=O)N[C@H]1CCO[C@H]2CC(C)(C)C(C(=O)Nc3ccccc3SSc3ccccc3NC(=O)C3N4C(=O)[C@@H](NC(=O)[C@H](C)NC)CCO[C@H]4CC3(C)C)N2C1=O (stereo partly drawn) [Compound 40] | ≤ 25 µM | ≤ 25 µM |  |
| CN[C@@H](C)C(=O)N[C@H]1CCS[C@H]2CCCC(C(=O)N[C@@H]3CCCc4ccccc43)N2C1=O (stereo partly drawn) [Compound 41] | ≤ 25 µM | ≤ 25 µM |  |
| CN[C@@H](C)C(=O)N[C@H]1CCO[C@H]2CC3(CCCC3)C(C(=O)N[C@@H]3CCCc4ccccc43)N2C1=O (stereo partly drawn) [Compound 43] | ≤ 25 µM | ≤ 25 µM |  |
| CN[C@@H](C)C(=O)N[C@H]1Cc2ccc(O)cc2[C@H]2CC(C)(C)C(C(=O)N[C@@H]3CCCc4ccccc43)N2C1=O (stereo partly drawn) [Compound 45] | ≤ 25 µM | ≤ 25 µM |  |
| CN(C)c1ccc(C(=O)NCCCCCCC(=O)NO)cc1 [Compound M344, Benzamide, 4-(dimethylamino)-N-[7-(hydroxyamino)-7-oxoheptyl]-] |  |  | C (C 50-75%) |
| Cc1cc(Cl)ccc1OCCCC(=O)NO [Droxinostat] |  |  | B (B 25-50%) |
| O=C(CCCCCCSc1ccc2ccccc2c1)NO [HNHA, Heptanamide, N-hydroxy-7-(2-naphthalenylthio)-] |  |  | B (B 25-50%) |
| Cc1ccc(C(=O)c2cc(C=CC(=O)NO)n(C)c2)cc1 [MC-1293, 2-Propenamide, N-hydroxy-3-[1-methyl-4-(4-methylbenzoyl)-1H-pyrrol-2-yl]-] |  |  | B (B 25-50%) |
| CC(C)C(=O)SCCCCCCC(=O)Nc1nc(-c2ccccc2)cs1 [NCH-51, Propanethioic acid, 2-methyl-, S-[7-oxo-7-[(4-phenyl-2-thiazolyl)amino]heptyl] ester] |  |  | A (A 0-25%) |
| CC(CC1OCCN(Cc2nc(=O)[nH][nH]2)C1c1ccc(F)cc1)c1cc(C(F)(F)F)cc(C(F)(F)F)c1 (stereo not drawn) [NKL 22, 3H-1,2,4-Triazol-3-one, 5-[[2-[2-[3,5-bis(trifluoromethyl)phenyl]propyl]-3-(4-fluorophenyl)-4-morpholinyl]methyl]-1,2-dihydro-] |  |  | A (A 0-25%) |
| O=Nc1ccc(O)c2ncccc12 [NSC-3852, 8-Quinolinol, 5-nitroso-] |  |  | B (B 25-50%) |
| O=C([O-])CCCc1ccccc1.[Na+] [Phenylbutyrate•Na, Phenylbutyrate⋅Na] |  |  | A (A 0-25%) |
| O=C(CCCCCN1C(=O)c2cccc3cccc(c23)C1=O)NO [Scriptaid] |  |  | C (C 50-75%) |
| O=C(CCCCCCC(=O)NO)NO [Suberoyl bis-hydroxamic acid] |  |  | B (B 25-50%) |
| CC(/C=C/C(=O)NO)=C\[C@@H](C)C(=O)c1ccc(N(C)C)cc1 [Trichostatin A] |  |  | C (C 50-75%) |
| CCCC(CCC)C(=O)O [Valproic acid, valproic acid] |  |  | A (A 0-25%) |
| O=C(CCCCCCC(=O)Nc1ccc(F)cc1)NO [p-Fluoro-SAHA] |  |  | A (A 0-25%) |
| Oxamflatin |  |  | C (C 50-75%) |
